The source of these data is patent US12473296B2, “Perk inhibiting compounds” (HiberCell, Inc., priority 2019, dated 2025).

Assay [1] has as its target EIF2AK3 (PERK) catalytic domain (amino acids 536-1116) (Homo sapiens (Human), UniProt Q9NZJ5). The assay can be described thus: PERK in vitro activity assay (isolated), TR-FRET kinase assay. The conditions noted are these: isolated PERK enzyme, 1.5 μM ATP, GFP-eIF2a substrate; read-out: Biochemical IC50. Put shortly: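 Human PERK catalytic domain (aa 536-1116) with 100-200 nM GFP-eIF2a in 50 mM HEPES pH 7.5, 10 mM MgCl2, 1.0 mM EGTA, 0.01% Brij-35; enzyme-started reaction run 45 min at room temperature. Stopped with 10 mM EDTA, 2 nM Tb-anti-phospho-eIF2a added for 90 min; IC50 from TR-FRET ratio by 4-parameter logistic fit.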
For orientation: TR-FRET usually uses a lanthanide donor and a delayed reading to cut background.

The target of assay [2] is PERK (Homo sapiens (Human), UniProt Q9NZJ5). Nature of the assay: PERK cellular assay (TR-FRET, HEK293-EGFP-eIF2α cells, tunicamycin-induced ER stress). It counts as cell-based. The following applies: tunicamycin 2 hours, read-out: Cellular IC50 (μM) (EIF2a). In outline: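 After 2 h tunicamycin ([…]) stress following 30 min compound pretreatment at 37 °C, lysed HEK293-EGFP-eIF2α cells were read by TR-FRET. IC50 derived by 4-parameter logistic fitting of percent inhibition, DMSO-normalized, from 10-point 3-fold dilutions.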

SMILES strings stand for the structures.

Chain of PERK (Q9NZJ5 30-1116): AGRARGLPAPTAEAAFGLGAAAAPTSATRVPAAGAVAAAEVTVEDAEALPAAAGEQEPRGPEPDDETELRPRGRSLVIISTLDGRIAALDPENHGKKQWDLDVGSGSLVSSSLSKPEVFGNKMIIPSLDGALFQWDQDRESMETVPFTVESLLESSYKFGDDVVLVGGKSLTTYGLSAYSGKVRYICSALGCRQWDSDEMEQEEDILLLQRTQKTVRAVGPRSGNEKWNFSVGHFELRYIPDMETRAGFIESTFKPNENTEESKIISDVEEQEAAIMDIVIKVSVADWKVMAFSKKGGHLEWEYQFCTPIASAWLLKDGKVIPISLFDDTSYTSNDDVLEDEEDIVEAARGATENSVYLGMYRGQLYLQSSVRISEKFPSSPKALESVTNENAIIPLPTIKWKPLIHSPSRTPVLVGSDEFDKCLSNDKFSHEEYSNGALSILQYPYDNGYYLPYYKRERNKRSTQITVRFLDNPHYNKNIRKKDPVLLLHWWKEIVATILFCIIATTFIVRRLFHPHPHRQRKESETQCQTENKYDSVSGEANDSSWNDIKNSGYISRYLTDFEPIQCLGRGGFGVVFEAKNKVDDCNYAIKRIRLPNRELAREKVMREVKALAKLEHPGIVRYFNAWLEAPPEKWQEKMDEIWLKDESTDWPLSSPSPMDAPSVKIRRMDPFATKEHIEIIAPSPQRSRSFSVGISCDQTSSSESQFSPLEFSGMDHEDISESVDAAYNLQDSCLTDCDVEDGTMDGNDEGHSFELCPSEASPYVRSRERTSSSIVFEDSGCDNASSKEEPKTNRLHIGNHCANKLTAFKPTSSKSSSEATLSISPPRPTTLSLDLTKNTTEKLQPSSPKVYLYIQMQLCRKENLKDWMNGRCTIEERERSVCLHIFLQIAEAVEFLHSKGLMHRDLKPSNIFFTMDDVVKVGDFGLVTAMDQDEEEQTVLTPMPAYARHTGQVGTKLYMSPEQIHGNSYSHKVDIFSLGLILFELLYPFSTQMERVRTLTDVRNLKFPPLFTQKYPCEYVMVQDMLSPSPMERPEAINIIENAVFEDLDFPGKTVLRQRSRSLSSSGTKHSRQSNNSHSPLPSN
Chain of EIF2AK3 (PERK) catalytic domain (amino acids 536-1116) (Q9NZJ5 536-1116): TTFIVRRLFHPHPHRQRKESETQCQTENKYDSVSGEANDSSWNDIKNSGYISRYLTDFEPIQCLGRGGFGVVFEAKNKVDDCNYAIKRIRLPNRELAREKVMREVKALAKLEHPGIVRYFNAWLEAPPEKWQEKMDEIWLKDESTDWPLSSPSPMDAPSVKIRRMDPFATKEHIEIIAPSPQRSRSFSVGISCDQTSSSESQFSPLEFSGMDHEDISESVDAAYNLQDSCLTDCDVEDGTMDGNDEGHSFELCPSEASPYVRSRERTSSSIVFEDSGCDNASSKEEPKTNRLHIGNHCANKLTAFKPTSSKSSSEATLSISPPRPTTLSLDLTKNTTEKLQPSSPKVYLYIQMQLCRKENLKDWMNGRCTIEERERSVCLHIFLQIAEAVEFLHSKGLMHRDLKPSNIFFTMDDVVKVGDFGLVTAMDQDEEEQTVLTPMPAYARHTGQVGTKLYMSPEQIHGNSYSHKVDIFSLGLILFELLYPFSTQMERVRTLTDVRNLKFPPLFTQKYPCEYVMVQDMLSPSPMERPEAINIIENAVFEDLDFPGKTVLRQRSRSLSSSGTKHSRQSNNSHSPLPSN

A word on the IC50: it is the concentration needed to halve the response being measured. On to `Cc1cc(NC(=O)Cc2ccc3ccccc3c2)ccc1-c1cnc(N)c(C(=O)NC(C)C)c1` [Example 208, 2-amino-N-isopropyl-5-(2-methyl-4-(2-(naphthalen-2-yl)acetamido)phenyl)nicotinamide], for which the 50% inhibitory concentration (IC50) was in the range of 0.026 to 0.05 µM in assay [1] and 0.101 to 0.25 µM in assay [2].
For the molecule `Cc1cc(NC(=O)Cc2ccc3ncccc3c2)ccc1-c1cnc(N)c(C(=O)NC(C)C)c1` [Example 209, 2-amino-N-isopropyl-5-(2-methyl-4-(2-(quinolin-6-yl)acetamido)phenyl)nicotinamide], the values for the IC50 in assay [1] and in assay [2] were 0.101 to 0.25 µM and 1 to 2 µM, respectively.
The like results for `Cc1cc(NC(=O)Cc2cncc3ccccc23)ccc1-c1cnc(N)c(C(=O)NC(C)C)c1` [Example 210, 2-amino-N-isopropyl-5-(4-(2-(isoquinolin-4-yl)acetamido)-2-methylphenyl) nicotinamide] were, in that order, 0.051 to 0.1 µM and 1 to 2 µM.
The like results for `Cc1cc(NC(=O)Cc2cccc3cnccc23)ccc1-c1cnc(N)c(C(=O)NC(C)C)c1` [Example 211, 2-amino-N-isopropyl-5-(4-(2-(isoquinolin-5-yl)acetamido)-2-methylphenyl) nicotinamide] were, in that order, 0.251 to 0.5 µM and 2 to 3 µM.
As to `Cc1cc(NC(=O)Cc2cccc3ncccc23)ccc1-c1cnc(N)c(C(=O)NC(C)C)c1` [Example 212, 2-amino-N-isopropyl-5-(2-methyl-4-(2-(quinolin-5-yl)acetamido)phenyl)nicotinamide], the results for the half-maximal inhibitory concentration (IC50) in assay [1] and in assay [2] were 1 to 2 µM and over 5 µM, respectively.
The corresponding values for `Cc1cc(NC(=O)CC2CC2)ccc1-c1cnc(N)c(C(=O)NC(C)C)c1` [Example 213, 2-amino-5-(4-(2-cyclopropyl-acetamido)-2-methylphenyl)-N-isopropylnicotinamide] are 1 to 2 µM and over 5 µM.
The corresponding values for `Cc1cc(NC(=O)CC2CCC2)ccc1-c1cnc(N)c(C(=O)NC(C)C)c1` [Example 214, 2-amino-5-(4-(2-cyclobutylacetamido)-2-methylphenyl)-N-isopropylnicotinamide] are 0.251 to 0.5 µM and over 5 µM.
The corresponding values for `Cc1cc(NC(=O)CC2CCCC2)ccc1-c1cnc(N)c(C(=O)NC(C)C)c1` [Example 215, 2-amino-5-(4-(2-cyclopentylacetamido)-2-methylphenyl)-N-isopropylnicotinamide] are over 5 µM and over 5 µM.
On to `Cc1cc(NC(=O)CC2CCCCC2)ccc1-c1cnc(N)c(C(=O)NC(C)C)c1` [Example 216, 2-amino-5-(4-(2-cyclohexylacetamido)-2-methylphenyl)-N-isopropylnicotinamide], for which the 50% inhibitory concentration (IC50) was 1 to 2 µM in assay [1] and over 5 µM in assay [2].
The like results for `Cc1cc(NC(=O)c2ccccc2)ccc1-c1cnc(N)c(C(=O)NC(C)C)c1` [Example 217, 2-amino-5-(4-benzamido-2-methylphenyl)-N-isopropylnicotinamide] were, in that order, over 5 µM and 0.501 to 1 µM.
The corresponding values for `Cc1cc(NC(=O)N(C)c2ccccc2)ccc1-c1cnc(N)c(C(=O)NC(C)C)c1` [Example 218, 2-amino-N-isopropyl-5-(2-methyl-4-(3-methyl-3-phenylureido)phenyl)nicotinamide] are 1 to 2 µM and over 5 µM.
The corresponding values for `Cc1cc(NC(=O)Oc2ccccc2)ccc1-c1cnc(N)c(C(=O)NC(C)C)c1` [Example 219, phenyl (4-(6-amino-5-(isopropylcarbamoyl)pyridin-3-yl)-3-methylphenyl)carbamate] are 1 to 2 µM and 1 to 2 µM.
